Data on 13 compounds can be found in paper PMC5155426, “Organic Redox Species in Aqueous Flow Batteries: Redox Potentials, Chemical Stability and Solubility” (Scientific Reports, 2016).

The structures appear in SMILES notation. In brackets after ≈: the same amount, converted by molar mass. Several values for one entry are separate records, joined by “and”; a condition that tells them apart may be missing. Identical values can stand only once. Entries after “also recorded” stand apart in the source; their conditions may differ.

Data set [1] in a line: Cyclic voltammetry: formal redox potential, peak current ratio, electrochemical reversibility. Format: physicochemical. How it is done:
The investigated compounds were used as-purchased and without any purification. […] For each series of CVs, a freshly polished electrode was used. The CVs for soluble compounds in 1 mM concentration were recorded in a glass beaker with a customized lid in nitrogen purged solutions of three different pHs, namely pH 0 (1 M H2SO4), pH 7 (0.5 M phosphate buffer) and pH 13 (1 M NaOH). The pH of the NaOH solution is taken as 13 to account for carbonization of the solution with exposure to air. A background CV was recorded before each CV experiment to exclude background contaminations. The CVs of insoluble compounds in 1 M H2SO4, or 0.5 M phosphate buffer were recorded as follows: 6 mL of the supporting electrolyte was mixed with approximately 4 mL of acetone, and then a small amount of the quinone was added so that its concentration was around 1 mM.
Each CV was analyzed in terms of peak potentials and peak currents. Peak currents were determined by subtracting a polynomial fit of the background from the recorded current as exemplified in Supplementary, S1. A plot of the absolute values of the peak currents to the square root of the scan rate was constructed and, when reasonable, a linear fit included to evaluate the electrochemical (Nernstian) reversibility of the electrochemical reaction. The peak current Ip for reversible reactions are given by equation (1).
Where F is the Faraday constant, R the gas constant, T the temperature, n the number of electron transferred, A the area of the electrode, DOthe diffusion coefficient and CO^*the bulk concentration of the analyte and v the scan rate. The peak current ratio is expected to be close to one for reversible species. The formal redox potential (E^0’), which is the adjusted form of the standard redox potential, where effects of the medium is taken into account, is reported here as the midpoint potential between the two peak potentials in the CV[24]. All half-cell potentials in this work refer to the normal hydrogen electrode (VNHE).

Data set [2] in a line: Aqueous solubility estimation (OECD test #105) in 1 M supporting electrolytes. To be noted: for solubility compared with AQDS(2,7) and AQS(2): sulfonated AQs. The procedure:
After each addition the test tube was ultrasonicated and/or shaken vigorously using a Vortex Generator for at least 10 minutes at room temperature. Then the tube was inspected visually for undissolved sample and the addition of supporting electrolyte solution continued until the sample seemed just dissolved. The volumes just before and after full dissolution are used for calculating the solubility interval (Supplementary, S4 and S5) and the solubility is estimated as the average between the two.

Data set [3] can be described thus: Visual inspection of dissolved samples on standing (thixotropy, phase separation). Format: physicochemical. How it is done: Dissolved samples were left to stand for 12 hours and visually inspected for thixotropy using a vortex generator. For very insoluble compounds the amount of sample was decreased to 0.01 g and the dissolution time increased up to 24 h.
In practical RFBs thixotropy is not wanted, as the redox solutions can be kept still for long times. […] Thixotropy of AQ dyes in aqueous dispersions has been described earlier, as well as some methods to overcome the problem such as addition of polyvinylpyrrolidone to the solution[43].

[4] abbreviates: pH 0 (1 M H2SO4), midpoint of CV peak potentials, about 1 mM, acetone added for insoluble compounds.
Where [5] appears, read: pH 13 (1 M NaOH), midpoint of CV peak potentials.
[6] abbreviates: 1 M KCl supporting electrolyte prepared from MilliQ water, saline or isotonic, thermodynamic from solid, Solubility, 1 M KCl, room temperature.
The mark [7] stands for this setting: 1 M H2SO4 supporting electrolyte prepared from MilliQ water, aqueous buffer, thermodynamic from solid, Solubility, 1 M H2SO4, room temperature, interval just after / before full dissolution.
The mark [8] stands for this setting: 1 M KOH supporting electrolyte prepared from MilliQ water, aqueous buffer, thermodynamic from solid, Solubility, 1 M KOH, room temperature.
Where [9] appears, read: pH 7 (0.5 M phosphate buffer), midpoint of CV peak potentials.

As to `O=C1c2cccc(S(=O)(=O)[O-])c2C(=O)c2c1cccc2S(=O)(=O)[O-].[K+].[K+]` [AQDS(1,8), 9,10-anthraquinone-1,8-disulfonate dipotassium], the Electrochemical reversibility result in data set [1] (pH 0) was “Quasireversible”; in data set [1] (pH 7), “Quasireversible”; in data set [1] (pH 13), “Reversible”. The Peak current ratio in data set [1] (pH 0) is on record as 1.04(7); in data set [1] (pH 7) it was 0.4(1); in data set [1] (pH 13) it was 1.0(3). Also, the results for the “formal redox potential E0'” value in data set [1] (setting [4]), in data set [1] (pH 0 (1 M H2SO4); midpoint of CV peak potentials; about 1 mM; acetone added for insoluble compounds; 8)) and in data set [1] (setting [5]) were 0.03 VNHE, 0.027(4) VNHE and -0.464(4) VNHE, respectively. In addition, the “solubility compared with AQDS(2,7) and AQS(2)” value in data set [2] is “more than ten times lower solubility”. Also, in data set [3] (electrolyte not stated), the “Comment: behaviour of the solution upon standing” value (“Comment: behaviour” below) was “Phase separation”.
In general, solubility refers to how much of the substance goes into solution per volume. Regarding `O=C1c2ccccc2C(=O)c2c1cc(S(=O)(=O)O)c(O)c2O` [AQS(2)DH, 3,4-dihydroxy-9,10-anthraquinone-2-sulfonate sodium], the Peak current ratio in data set [1] (pH 0) is reported as 0.9(1); in data set [1] (pH 7), 0.85(6); in data set [1] (pH 13), 1.1(1). For the same compound, in data set [1] (pH not specified), the Electrochemical reversibility entry is listed as “Quasie versib le”. Besides, the solubility result was “barely soluble” in data set [2] (1 M H2SO4, room temperature, interval just after / before full dissolution) and under 10 mM in data set [2] (setting [6]). Besides, the “Comment: behaviour” value in data set [3] (in KOH (1 M)) is given as “T hixotropic behavior; also recorded: thixotropy was observed”.
Take `O=C1c2ccccc2C(=O)c2c1ccc(O)c2O` [AQDH(1,2), 1,2-dihydroxy-9,10-anthraquinone]: the Peak current ratio in data set [1] (pH 0) is 0.73(7); in data set [1] (pH 7), 0.5(1); in data set [1] (pH 13), 1.2(1). Moreover, the “formal redox potential E0'” value in data set [1] (setting [4]) is 0.005(4) VNHE. Moreover, the Electrochemical reversibility entry in data set [1] (pH 13) is on record as “Quasireversible”. Further, the solubility in data set [2] (setting [7]) and in data set [2] (setting [6]) was under 10 mM throughout. In addition, in data set [3] (in KOH (1 M)), the “Comment: behaviour” value is “T hixotropic; also recorded: thixotropy was observed”.
Turning to `O=C1c2ccccc2C(=O)c2c(O)ccc(O)c21` [AQDH(1,4), 1,4-dihydroxy-9,10-anthraquinone], the Peak current ratio in data set [1] (pH 0) is reported as 0.6(1); in data set [1] (pH 7), 0.4(2); in data set [1] (pH 13) it was 1.05(3). In data set [1] (pH 13), the Electrochemical reversibility result was “Reversible”. Besides, the solubility in data set [2] (setting [7]) and in data set [2] (setting [6]) was under 10 mM in each case. Besides, the “Comment: behaviour” value in data set [3] (in KOH (1 M)) is recorded as “T hixotropic; also recorded: thixotropy was observed”.
For `O=C1c2cccc(O)c2C(=O)c2c(O)cc(CO)cc21` [AQDH(1,8)MH, 1,8-dihydroxy-3-(hydroxymethyl)-9,10-anthraquinone], the Peak current ratio in data set [1] (pH 0) is on record as 0.58(4); in data set [1] (pH 7), 0.51(4); in data set [1] (pH 13), 1.03(1). Also, the Electrochemical reversibility entry in data set [1] (pH 13) is “Reversible”. Further, the solubility in data set [2] (setting [7]) and in data set [2] (setting [6]) was under 10 mM throughout. Also, the “Comment: behaviour” value in data set [3] (in KOH (1 M)) was “thixotropy was observed”; in data set [3] (in KOH (1 M), listed as AQDG(1,8)MH) it was “T hixotropic behavior”.
For the compound `O=C1c2cccc(S(=O)(=O)[O-])c2C(=O)c2cccc(S(=O)(=O)[O-])c21.[Na+].[Na+]` [AQDS(1,5), 9,10-anthraquinone-1,5-disulfonate disodium], the results for the Electrochemical reversibility result in data set [1] (pH 0), in data set [1] (pH 7) and in data set [1] (pH 13) were “Quasireversible”, “Quasireversible” and “Reversible”, respectively. Also, the results for the Peak current ratio in data set [1] (pH 0), in data set [1] (pH 7) and in data set [1] (pH 13) were 1.7(1), 0.49(3) and 1.17(4), respectively. Moreover, the “formal redox potential E0'” value in data set [1] (setting [4]) was −0.03 VNHE. In addition, the solubility in data set [2] (setting [8]) was under 10 mM. Also, the “solubility compared with AQDS(2,7) and AQS(2)” value in data set [2] is on record as “more than ten times lower solubility”. Moreover, in data set [3] (electrolyte not stated), the “Comment: behaviour” value is recorded as “Phase separation”.
In the case of `O=C1c2ccccc2C(=O)c2cc(S(=O)(=O)O)ccc21` [AQS(2), 9,10-anthraquinone-2-sulfonate sodium], the figures for the Peak current ratio in data set [1] (pH 0), in data set [1] (pH 7) and in data set [1] (pH 13) were 1.0(1), 0.88(1) and 1.2(2), respectively. In addition, the “formal redox potential E0'” value in data set [1] (setting [4]) is 0.163(3) VNHE and 0.163 VNHE; in data set [1] (setting [5]) it was -0.334(3) VNHE. In data set [1] (pH not specified), the Electrochemical reversibility entry is “Reversible”. In addition, the “Comment: behaviour” value in data set [3] (electrolyte not stated) is on record as “Phase separation”.
Turning to `CC(C)=CCC1=C(O)C(=O)c2ccccc2C1=O` [NQ(1,4)HB, 2-hydroxy-3-(3-methyl-2-butenyl)-1,4-naphthoquinone], the “change of E0' from acidic (pH 0) to alkaline (pH 13)” value in data set [1] (13 pH units) is 0.8 V. Besides, the Electrochemical reversibility entry is “Quasireversible” in data set [1] (pH 0), “Reversible” in data set [1] (pH 7) and “Quasireversible” in data set [1] (pH 13). For the same compound, the “formal redox potential E0'” value in data set [1] (setting [4]) was 0.333(3) VNHE. The “pH dependence (slope) of E0'” value in data set [1] (pH 0 to pH 13) worked out at 67 mV/pH unit. The values for the Peak current ratio in data set [1] (pH 7) and in data set [1] (pH 13) were 1.08(5) and 0.38(4), respectively. The solubility in data set [2] (setting [7]) is under 10 mM; in data set [2] (setting [6]) it was under 10 mM; in data set [2] (setting [8]), 700 mM (≈ 170000 µg/mL).
Turning to `Oc1c(F)c(F)c(O)c(F)c1F` [HQ(1,4)TF, 1,2,4,5-tetrafluoro-3,6-dihydroxybenzene], the Peak current ratio in data set [1] (pH 0) was 0.5(1); in data set [1] (pH 7), 0.21(7); in data set [1] (pH 13), 0.2(1). Besides, the “formal redox potential E0'” value in data set [1] (setting [4]) is reported as 0.707(4) VNHE; in data set [1] (setting [9]), 0.23(7) VNHE; in data set [1] (setting [5]), -0.05(6) VNHE. Besides, the Electrochemical reversibility entry in data set [1] (pH not specified) is given as “Quasireversible”. Also, in data set [2] (setting [6]), the solubility was 10 mM (≈ 1820 µg/mL).
As for `O=C1c2ccc(O)c(O)c2C(=O)c2c(O)ccc(O)c21` [AQTH(1,2), 1,2,5,8-tetrahydroxy-9,10-anthraquinone], the “formal redox potential E0'” value in data set [1] (setting [4]) is listed as -0.084(5) VNHE; in data set [1] (setting [9]), -0.414(3) VNHE; in data set [1] (setting [5]) it was -0.69(1) VNHE. Besides, the Electrochemical reversibility result in data set [1] (pH 13) is on record as “Reversible”. Moreover, in data set [1] (pH 13), the Peak current ratio is reported as 0.96(6). For the same compound, the solubility in data set [2] (setting [7]) and in data set [2] (setting [6]) was under 10 mM in each case.
For the compound `O=C(O)c1cnccn1` [Pyrazine-2-carboxylic acid], the “formal redox potential E0'” value in data set [1] (setting [4]) is recorded as -0.013(3) VNHE; in data set [1] (setting [9]) it was “Unstable”; in data set [1] (setting [5]), “Unstable”. Besides, the solubility in data set [2] (setting [7]) was 70 mM (≈ 8690 µg/mL); in data set [2] (setting [6]) it was 80 mM (≈ 9930 µg/mL); in data set [2] (setting [8]), 900 mM (≈ 112000 µg/mL).
In the case of `O=C1C(Cl)=C(Cl)C(=O)c2c(O)ccc(O)c21` [NQ(1,4)DHDCl, 2,3-dichloro-5,8-dihydroxy-1,4-naphtoquinone], in data set [1] (setting [5]), the “formal redox potential E0'” value was “≈ 0.4 VNHE”. Further, the Electrochemical reversibility result in data set [1] (pH not specified) was “electrochemically irreversible”. Further, the solubility in data set [2] (setting [7]), in data set [2] (setting [6]) and in data set [2] (setting [8]) was under 10 mM in each case. In addition, the “aqueous solubility, qualitative” value in data set [2] (water / supporting electrolytes as worded) is “insoluble in water”.
For `Oc1c(Cl)c(Cl)c(O)c(Cl)c1Cl` [HQ(1,4)TCl, Tetrachloro hydroquinone], the values for the Peak current ratio in data set [1] (pH 0) and in data set [1] (pH 7) were 0.72(5) and 1.1(2), respectively. Moreover, the “formal redox potential E0'” value is on record as 0.70(1) VNHE in data set [1] (setting [4]), 0.277(1) VNHE in data set [1] (setting [9]) and 0.08(1) VNHE in data set [1] (setting [5]). Further, the Electrochemical reversibility entry in data set [1] (pH not specified) is “Quasireversible”. Further, the “aqueous solubility, qualitative” value in data set [2] was “insoluble in water”. Moreover, the solubility in data set [2] is under 10 mM; in data set [2] (aqueous buffer, thermodynamic from solid, Solubility) it was under 10 mM; in data set [2] (saline or isotonic, thermodynamic from solid, Solubility), under 10 mM.
